Laboratory results from patent US5759577A, “Controlled release of steroids from sugar coatings” (American Home Products Corporation, priority 1996, dated 1998).

Columns and labels:
[1] = in vitro dissolution of medrogestone, USP XX <711> Apparatus 2, 50 r.p.m.; assay type: physicochemical; details: sugar coat containing 0.4% microcrystalline cellulose versus conventional tablet
Procedure: A sugar coating containing 5 mg of medrogestone in a matrix of sucrose with 0.4% microcrystalline cellulose and 0.5% polyvinyl pyrrolidone was applied to a sealed and sugar-coated tablet core.

[2] = in vitro dissolution of steroid, Method A (USP XX <711> Apparatus 2, 50 rpm); assay type: physicochemical; details: Examples 1-3, Methods A, B and C, no microcrystalline cellulose
Excerpt: CV represents the coefficient of variation between these trials expressed as a percentage.

| Structure (SMILES) | dissolution of medrogestone (in words) [1] | release from the sugar coating (in words) [2] |
| --- | --- | --- |
| CC(=O)[C@@]1(C)CC[C@H]2[C@@H]3C=C(C)C4=CC(=O)CC[C@]4(C)[C@H]3CC[C@@]21C [medrogestone] | dramatic effect of reduced dissolution |  |
| CC(=O)O[C@]1(C(C)=O)CC[C@H]2[C@@H]3C[C@H](C)C4=CC(=O)CC[C@]4(C)[C@H]3CC[C@@]21C [medroxyprogesterone acetate] |  | released from the sugar coating extremely rapidly |
